Results as given in the supplement of paper PMC10307832.

Assays:
Test in all cases: relative viability (nuclei count vs DMSO), 5 days (fraction); higher = more cells survive
Dactolisib + Phenformin = compound: Cn1c(=O)n(-c2ccc(C(C)(C)C#N)cc2)c2c3cc(-c4cnc5ccccc5c4)ccc3ncc21 [Dactolisib] + N=C(N)NC(=N)NCCc1ccccc1 [Phenformin] (partner 250 µM)
In short: (§1)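 A single step with final 0.05% Triton X-100, 1% formaldehyde and 1 ug/ml Hoechst fixed the cells and stained nuclei 5 days after treatment. Lung cancer cell lines in 1536-well plates had been treated by pin tool the day after seeding with one drug alone or a fixed anchor-drug dose plus five library-drug doses (not always all listed) in √10 steps, and nuclei were counted on 4× images. Relative viability is the ratio of nuclei in treated wells to nuclei in vehicle wells, taken as the median of duplicate plates.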

AZ505 + Pictilisib = compound: C1CCC(CC1)N(CCNCCC2=C3C(=C(C=C2)O)NC(=O)CO3)C(=O)CCNCCC4=CC(=C(C=C4)Cl)Cl [AZ505] + CS(=O)(=O)N1CCN(Cc2cc3nc(-c4cccc5[nH]ncc45)nc(N4CCOCC4)c3s2)CC1 [Pictilisib] (partner 1 µM)
In short: as §1

AZ505 + AZD7762 = compound: C1CCC(CC1)N(CCNCCC2=C3C(=C(C=C2)O)NC(=O)CO3)C(=O)CCNCCC4=CC(=C(C=C4)Cl)Cl [AZ505] + NC(=O)Nc1cc(-c2cccc(F)c2)sc1C(=O)N[C@H]1CCCNC1 [AZD7762] (partner 0.2 µM)
In short: as §1

AZ505 + Trametinib = compound: C1CCC(CC1)N(CCNCCC2=C3C(=C(C=C2)O)NC(=O)CO3)C(=O)CCNCCC4=CC(=C(C=C4)Cl)Cl [AZ505] + CC(=O)Nc1cccc(-n2c(=O)n(C3CC3)c(=O)c3c(Nc4ccc(I)cc4F)n(C)c(=O)c(C)c32)c1 [Trametinib] (partner 0.02 µM)
In short: as §1

Cell Line	relative viability (Dactolisib + Phenformin; first compound 0.002 µM)	relative viability (Dactolisib + Phenformin; first compound 0.006325 µM)	relative viability (Dactolisib + Phenformin; first compound 0.02 µM)	relative viability (Dactolisib + Phenformin; first compound 0.06325 µM)	relative viability (Dactolisib + Phenformin; first compound 0.2 µM)	relative viability (AZ505 + Pictilisib; first compound 0.08 µM)	relative viability (AZ505 + Pictilisib; first compound 0.253 µM)	relative viability (AZ505 + Pictilisib; first compound 0.8 µM)	relative viability (AZ505 + Pictilisib; first compound 2.53 µM)	relative viability (AZ505 + Pictilisib; first compound 8 µM)	relative viability (AZ505 + AZD7762; first compound 0.08 µM)	relative viability (AZ505 + AZD7762; first compound 0.253 µM)	relative viability (AZ505 + AZD7762; first compound 0.8 µM)	relative viability (AZ505 + AZD7762; first compound 2.53 µM)	relative viability (AZ505 + AZD7762; first compound 8 µM)	relative viability (AZ505 + Trametinib; first compound 0.08 µM)	relative viability (AZ505 + Trametinib; first compound 0.253 µM)	relative viability (AZ505 + Trametinib; first compound 0.8 µM)	relative viability (AZ505 + Trametinib; first compound 2.53 µM)	relative viability (AZ505 + Trametinib; first compound 8 µM)
201T	0.476	0.483	0.446	0.414	0.428	0.651	0.678	0.613	0.633	0.674	0.63	0.572	0.688	0.596	0.613	0.688	0.716	0.722	0.705	0.711
NCI-H2170	0.454	0.433	0.48	0.434	0.284	0.319	0.289	0.254	0.336	0.33	0.825	0.901	0.821	0.92	0.966	0.84	0.931	0.883	0.893	0.942
NCI-H460	0.506	0.474	0.508	0.142	0.0635	0.264	0.299	0.337	0.29	0.364	0.701	0.522	0.623	0.483	0.621	0.218	0.174	0.065	0.126	0.0757
HCC-15	0.482	0.488	0.449	0.291	0.184	0.658	0.657	0.712	0.462	0.71	0.711	1.24	1.24	1.13	1.42	0.278	0.391	0.341	0.366	0.372
LCLC-103H	0.369	0.321	0.345	0.317	0.291	0.627	0.532	0.555	0.657	0.6	0.711	0.719	0.665	0.647	0.718	0.714	0.625	0.604	0.669	0.69
NCI-H441	1.28	0.737	0.812	0.337	0.289	0.427	0.548	0.458	0.546	0.521	0.876	1.14	1.06	1.36	1.54	0.413	0.385	0.536	0.568	0.465
EPLC-272H	0.351	0.25	0.268	0.228	0.259	0.255	0.306	0.285	0.256	0.289	0.451	0.253	0.433	0.424	0.343	0.308	0.292	0.307	0.277	0.269
